Assay results: patent publication US11912681B2, “Crystalline and salt forms of PPAR agonist compounds” (Mitobridge, Inc., priority 2016, dated 2024)
One block for each compound: values may come before it.

How the values were obtained:
Type in all cases: physicochemical
[1] = Relative thermodynamic stability of hemisulfate form 1 and form 2 (DSC, competition slurry); conditions: ethyl acetate, two days at 25° C. then eight days at 4° C., slurried with form 1
Experimental: […] Both forms were still present in the slurry, so the experiment was moved to 4° C.
After two days, both forms were still present in the slurry, so the experiment was moved to 4° C.

[2] = Thermodynamic stability form (slurry) screen, XRPD; conditions: fifteen days
Experimental: The vials were sealed then placed onto temperature controlled stir plates and stirred for fifteen days at 500 rpm.

[3] = Chemical stability study, degradation and recovery by HPLC
Experimental: (§1) The material was stored at 4° C., 25° C./60% RH, 40° C., and 40° C./75% RH for eight weeks as well as stressed conditions of 70° C. and 70° C./75% RH for two weeks. In addition, photostability was also measured after exposing the material to two cycles of ICH conditions. Degradation and recovery was measured by HPLC. See Table 6 for HPLC results, including percent recovery of solids and relative retention time area percentages, compared against the standard stored at 4° C.

[4] = Physical stability on storage by XRPD; conditions: all storage conditions of the stability study
Experimental: as §1
XRPD was used to check the physical stability.

[5] = Stability of Compound A salts in water (XRPD); conditions: about 20 mg in 1 mL water, overnight, 20° C., 850 rpm
Experimental: The stability of the sulfate, phosphate, L-lysine, and TRIS salts prepared in Example 3 were tested. Approximately 20 mg of each sample was combined with 1 mL of water in microcentrifuge tubes. The samples were allowed to mix overnight on a temperature controlled shaker at 20° C. at 850 rpm. The solids were characterized by XPRD to determine if a solid state form change occurred.

[6] = Dynamic vapor sorption analysis (hygroscopicity)
Excerpt: At approximately 90% RH, the material reversibly picks up approximately 3.5% water by weight.

competition slurry outcome (XRPD) [1]: remained a mixture of forms
SMILES: Cc1cnc(-c2ccc(C(F)(F)F)cc2)n1Cc1ccccc1OCCC[C@@H](C)CC(=O)O [Compound A hemisulfate form 2, (R)-3-methyl-6-(2-((5-methyl-2-(4-(trifluoromethyl)phenyl)-1H-imidazol-1-yl)methyl)phenoxy)hexanoic acid]

Results (solid state form after slurry) ([2]; 2-Methyl-THF, 25° C.): No change in form
Results (solid state form after slurry) ([2]; 2-Propanol, 50° C.): No change in form
Results (solid state form after slurry) ([2]; Acetone, 25° C.): No change in form
Results (solid state form after slurry) ([2]; Acetonitrile, 50° C.): No change in form
Results (solid state form after slurry) ([2]; CPME, 50° C.): No change in form
Results (solid state form after slurry) ([2]; Dichloromethane, 4° C.): No change in form
Results (solid state form after slurry) ([2]; Ethanol, 50° C.): No change in form
Results (solid state form after slurry) ([2]; Ethyl Acetate, 50° C.): No change in form
Results (solid state form after slurry) ([2]; Tetrahydrofuran, 25° C.): No change in form
Results (solid state form after slurry) ([2]; Toluene, 50° C.): No change in form
Results (solid state form after slurry) ([2]; Water, 25° C.): No change in form
Results (solid state form after slurry) ([2]; Water/Acetonitrile (1/3, v/v), 4° C.): No change in form
% recovery of solids (HPLC) ([3]; 4° C., 4 wk): 101%
% recovery of solids (HPLC) ([3]; 4° C., 8 wk): 100%
% recovery of solids (HPLC) ([3]; 25° C./60% RH, 4 wk): 100%
% recovery of solids (HPLC) ([3]; 25° C./60% RH, 8 wk): 99%
% recovery of solids (HPLC) ([3]; 40° C., 4 wk): 101%
% recovery of solids (HPLC) ([3]; 40° C., 8 wk): 101%
% recovery of solids (HPLC) ([3]; 40° C./75% RH, 4 wk): 101%
% recovery of solids (HPLC) ([3]; 40° C./75% RH, 8 wk): 100%
% recovery of solids (HPLC) ([3]; 70° C., 2 wk): 101%
% recovery of solids (HPLC) ([3]; 70° C./75% RH, 2 wk): 101%
% recovery of solids (HPLC) ([3]; Control (dark) of photostability): 100%
% recovery of solids (HPLC) ([3]; Photo, two cycles of ICH conditions): 98%
physical stability, solid state form (XRPD) [4]: No changes in solid state form
solid state form change (XRPD) after mixing in water [5]: no change in the solids
water picked up by weight (DVS) ([6]; 25° C., approximately 90% RH, reversible): approximately 3.5%
solid form after DVS (XRPD) ([6]; after DVS at 25° C.): remained Compound A hemisulfate form 1
SMILES: Cc1cnc(-c2ccc(C(F)(F)F)cc2)n1Cc1ccccc1OCCC[C@@H](C)CC(=O)O [Compound A hemisulfate form 1, (R)-3-methyl-6-(2-((5-methyl-2-(4-(trifluoromethyl)phenyl)-1H-imidazol-1-yl)methyl)phenoxy)hexanoic acid]
